# According to patent US11944605B2, “Rapamycin analogs and uses thereof” (Janssen Pharmaceutica NV, priority 2018, dated 2024):
# Experiments:
# Assay type in all cases: cell-based
# [1] = tested on: mTORC1 over mTORC2; test: mTORC1 selectivity over mTORC2 at 24 hrs (Western blot based pS6K1 and pAKT assay); conditions: 24 hrs
# Experimental: (§1) Western Blot Based pS6K1 and pAKT Assay at 24 and 48 Hour Timepoints
# (§2) 1. Seed six well plate with 500,000 PC3 cells per well and incubate for 20˜24 hour.
# (§3) 2. Add compounds into the cell plate. Incubate for 24 to 48 hours.
# (§4) 4. Plate is placed on ice and the media is removed via aspiration. The wells are washed with 1 mL of 1× PBS and then fully aspirated.
# (§5) 5. 110 μL of 1% Triton Lysis Buffer is added and each well is scraped vigorously.
# (§6) 6. Cell homogenates are transferred to 1.5 mL eppendorf tubes on ice and spun down at 4° C. for 10 minutes at 10,000 rpm.
# (§7) 9. The membranes were washed 3× with TBS-T with a 5 minute incubation between each wash then incubated with secondary antibody (LiCor IRDye 800 Donkey Anti Rabbit) for at least 30 minutes.
# (§8) 10. The membranes were washed 3× with TBS-T with a 5 minute incubation between each wash.
# (§9) 11. The gels were then incubated for 5 minutes with PBS at room temperature then imaged using a Li-Cor.
# “N/A” stands for “not assayed.”
# [2] = tested on: mTORC1 pathway (pS6K1 T389) in PC3 cells; test: Western blot, mTORC1 pathway (pS6K1) in PC3 cells; conditions: PC3 cells, 24 hours
# Experimental: as §1, §2, §3, §4, §5, §6, §7, §8, §9
# (§10) The methods employed were substantially similar to those described above. Compounds were evaluated in PC3 cells, Jurkat cells, wild-type mouse embryotic fibroblast (MEF) cells, tuberous sclerosis 2 (TSC2) negative (TSC −/−) MEF cells, and tuberous sclerosis 2 (TSC2) positive (TSC +/+) MEF cells. Cells were incubated with compounds of the present invention for various time periods (e.g., 5 minutes, 15 minutes, 30 minutes, 90 minutes, 24 hours, or 48 hours), and evaluated according to known methodologies, such as those herein described.
# [3] = tested on: mTORC2 pathway (Akt phosphorylation) in PC3 cells; test: Western blot, mTORC2 pathway (pAkt) in PC3 cells; conditions: 24 hours
# Experimental: as §1, §2, §3, §4, §5, §6, §7, §8, §9, §10
# [4] = tested on: pS6K1 (p-p70 S6 Kinase (Thr389)) in MCF-7 cells; test: AlphaLISA Ultra pS6K1 Assay; conditions: Homo sapiens, 1.5 h; MCF7 cells, 90 min
# How it was run: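 AlphaLISA Ultra read-out (acceptor beads 2 h, then donor beads 2 h) on thawed lysates of MCF-7 cells. Cells had 20–24 h after seeding and a 2 h medium change, then 90 min of compound exposure at 0.5% final DMSO, with lysates stored at −80 °C.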
SMILES,mTORC1 selective @ 24 hrs [1],inhibition of the mTORC1 pathway [2],inhibition of mTORC2 (Akt phosphorylation) [3],IC50 [4] [nM]
CO[C@@H]1C[C@H](C[C@@H](C)[C@@H]2CC(=O)[C@H](C)/C=C(\C)[C@@H](O)[C@@H](OC)C(=O)[C@H](C)C[C@H](C)/C=C/C=C/C=C(\C)[C@@H](OCC(CO)CO)C[C@@H]3CC[C@@H](C)[C@@](O)(O3)C(=O)C(=O)N3CCCC[C@H]3C(=O)O2)CC[C@H]1O [I-5],YES,strong inhibition,do not inhibit,
"CO[C@@H]1C[C@H](C[C@@H](C)[C@@H]2CC(=O)[C@H](C)/C=C(\C)[C@@H](O)[C@@H](OC)C(=O)[C@H](C)C[C@H](C)/C=C/C=C/C=C(\C)[C@@H](OCCCC(=O)N(C)C)C[C@@H]3CC[C@@H](C)[C@@](O)(O3)C(=O)C(=O)N3CCCC[C@H]3C(=O)O2)CC[C@H]1OCCO [I-62, 4-[[(23E, 25E,27E,28E,35R,36S,37R,38R,40S,42S,44S,45S,46R,47R,57R)-46,57-dihydroxy-45-[(1R)-2-[(1S, 3R,4R)-4-(2-hydroxyethoxy)-3-methoxy-cyclohexyl]-1-methyl-ethyl]-47-methoxy-35, 36,37,38,48,49-hexamethyl-50,51,52,53,54-pentaoxo-69,70-dioxa-58-azatricyclohexatriaconta-23, 25,27(48),28(49)-tetraen-44-yl]oxy]-N,N-dimethyl-butanamide]",YES,strong inhibition,do not inhibit,1 to 10
"CO[C@@H]1CC(C[C@@H](C)C2CC(=O)[C@H](C)/C=C(\C)[C@@H](O)[C@@H](OC)C(=O)[C@H](C)C[C@H](C)/C=C/C=C/C=C(\C)[C@@H](OCCOCC(F)(F)F)C[C@@H]3CC[C@@H](C)[C@@](O)(O3)C(=O)C(=O)N3CCCC[C@H]3C(=O)O2)CC[C@H]1OCCO (stereo partly drawn) [I-71, (21E,23E,25E,26E,33R,34S,35R,36R,38S,40S,42S,43S,44R,45R,54R)-44, 54-dihydroxy-43-[(1R)-2-[(1S,3R,4R)-4-(2-hydroxyethoxy)-3-methoxy-cyclohexyl]-1-methyl-ethyl]-45-methoxy-33, 34,35,36,46,47-hexamethyl-42-[2-(2,2,2-trifluoroethoxy)ethoxy]-65,66-dioxa-56-azatricyclohexatriaconta-21,23,25(46),26(47)-tetraene-48, 49,50,51,52-pentone]",YES,strong inhibition,do not inhibit,0.1 to 1
"CO[C@@H]1C[C@H](C[C@@H](C)[C@@H]2CC(=O)[C@H](C)/C=C(\C)[C@@H](O)[C@@H](OC)C(=O)[C@H](C)C[C@H](C)/C=C/C=C/C=C(\C)[C@@H](OCC3COCCOCCOCCO3)C[C@@H]3CC[C@@H](C)[C@@](O)(O3)C(=O)C(=O)N3CCCC[C@H]3C(=O)O2)CC[C@H]1O (stereo partly drawn) [I-112, (28E,30E,32E,33E,36R,37S,38R,39R,41S,43S,45S,46S,48R,49R,58R)-48, 58-dihydroxy-46-[(1R)-2-[(1S,3R,4R)-4-hydroxy-3-methoxy-cyclohexyl]-1-methyl-ethyl]-49-methoxy-36, 37,38,39,50,51-hexamethyl-45-(1,4,7,10-tetraoxacyclododec-2-ylmethoxy)-72, 73-dioxa-59-azatricyclohexatriaconta-28,30,32(50),33(51)-tetraene-52, 53,54,55,56-pentone]",YES,,,0.1 to 1
"CO[C@@H]1C[C@H](C[C@@H](C)[C@@H]2CC(=O)[C@H](C)/C=C(\C)[C@@H](O)[C@@H](OC)C(=O)[C@H](C)C[C@H](C)/C=C/C=C/C=C(\C)[C@H](OCCOCCOCCOCCO)C[C@@H]3CC[C@@H](C)[C@@](O)(O3)C(=O)C(=O)N3CCCC[C@H]3C(=O)O2)CC[C@H]1OCCO [I-114, (21E,23E,25E,26E,38R,39S,40R,41R,43S,45S,47R,48S,49R,50R,59R)-49, 59-dihydroxy-47-[2-[2-[2-(2-hydroxyethoxy)ethoxy]ethoxy]ethoxy]-48-[(1R)-2-[(1S,3R, 4R)-4-(2-hydroxyethoxy)-3-methoxy-cyclohexyl]-1-methyl-ethyl]-50-methoxy-38,39,40,41,51, 52-hexamethyl-70,71-dioxa-60-azatricyclohexatriaconta-21,23,25(51),26(52)-tetraene-53, 54,55,56,57-pentone]",YES,,,1 to 10
"CO[C@@H]1C[C@H](C[C@@H](C)[C@@H]2CC(=O)[C@H](C)/C=C(\C)[C@@H](O)[C@@H](OC)C(=O)[C@H](C)C[C@H](C)/C=C/C=C/C=C(\C)[C@H](OCCOCCO)C[C@@H]3CC[C@@H](C)[C@@](O)(O3)C(=O)C(=O)N3CCCC[C@H]3C(=O)O2)CC[C@H]1OCCO [I-116, (21E,23E,25E,26E,34R,35S,36R,37R,39S,41S,43R,44S,45R,46R,55R)-45, 55-dihydroxy-43-[2-(2-hydroxyethoxy)ethoxy]-44-[(1R)-2-[(1S,3R, 4R)-4-(2-hydroxyethoxy)-3-methoxy-cyclohexyl]-1-methyl-ethyl]-46-methoxy-34,35,36,37,47,48-hexamethyl-66,67-dioxa-56-azatricyclohexatriaconta-21, 23,25(47),26(48)-tetraene-49,50,51,52,53-pentone]",YES,,,0.1 to 1
"COCCOCCO[C@@H]1C[C@@H]2CC[C@@H](C)[C@@](O)(O2)C(=O)C(=O)N2CCCC[C@H]2C(=O)O[C@H]([C@H](C)C[C@@H]2CC[C@@H](O)[C@H](OC)C2)CC(=O)[C@H](C)/C=C(\C)[C@@H](O)[C@@H](OC)C(=O)[C@H](C)C[C@H](C)/C=C/C=C/C=C/1C [I-119, (22E,24E,26E,27E,33R,34S,35R,36R,38S,40S,43S,44R,45R,54R)-44,54-dihydroxy-43-[(1R)-2-[(1S, 3R,4R)-4-hydroxy-3-methoxy-cyclohexyl]-1-methyl-ethyl]-45-methoxy-42-[R-2-(2-methoxyethoxy)ethoxy]-33, 34,35,36,46,47-hexamethyl-64,65-dioxa-55-azatricyclohexatriaconta-22, 24,26(46),27(47)-tetraene-48,49,50,51,52-pentone]",YES,,,< 0.1
"COCCOCCO[C@H]1C[C@@H]2CC[C@@H](C)[C@@](O)(O2)C(=O)C(=O)N2CCCC[C@H]2C(=O)O[C@H]([C@H](C)C[C@@H]2CC[C@@H](O)[C@H](OC)C2)CC(=O)[C@H](C)/C=C(\C)[C@@H](O)[C@@H](OC)C(=O)[C@H](C)C[C@H](C)/C=C/C=C/C=C/1C [I-120, (22E,24E,26E,27E,33R,34S,35R,36R,38S,40S,43S,44R,45R,54R)-44, 54-dihydroxy-43-[(1R)-2-[(1S,3R,4R)-4-hydroxy-3-methoxy-cyclohexyl]-I-methyl-ethyl]-45-methoxy-42-[S-2-(2-methoxyethoxy)ethoxy]-33,34,35,36,46,47-hexamethyl-64,65-dioxa-55-azatricyclohexatriaconta-22, 24,26(46),27(47)-tetraene-48,49,50,51,52-pentone]",YES,,,< 0.1
"CO[C@H]1C[C@@H]2CC[C@@H](C)[C@@](O)(O2)C(=O)C(=O)N2CCCC[C@H]2C(=O)O[C@H]([C@H](C)C[C@@H]2CC[C@@H](OP(C)(C)=O)[C@H](OC)C2)CC(=O)[C@H](C)/C=C(\C)[C@@H](O)[C@@H](OC)C(=O)[C@H](C)C[C@H](C)/C=C/C=C/C=C/1C [ridaforolimus, reference compound]",,strong inhibition,dose dependent inhibition,
"CO[C@H]1C[C@@H]2CC[C@@H](C)[C@@](O)(O2)C(=O)C(=O)N2CCCC[C@H]2C(=O)O[C@H]([C@H](C)C[C@@H]2CC[C@@H](OC(=O)C(C)(CO)CO)[C@H](OC)C2)CC(=O)[C@H](C)/C=C(\C)[C@@H](O)[C@@H](OC)C(=O)[C@H](C)C[C@H](C)/C=C/C=C/C=C/1C [temsirolimus, reference compound]",,strong inhibition,dose dependent inhibition,
